This is an account of results in US20250136552A1, “ANTAGONISTS OF CAV 2.3” (LARIO THERAPEUTICS LIMITED, priority 2021, published 2025).

Read-outs that look alike come from different tables or passages of the source.

In experiment [1] the target is T1, Cav2.3 (Homo sapiens, UniProt Q15878). Nature of the experiment: Human Cav2.3 channel calcium-influx assay. In kind it is cell-based. Particulars: HEK-293 T-Rex/Kir2.1 cells with inducible Cav2.3e-β4-α2δ1; Fluo8 fluorescence; 8-point dose response from 30 μM; no pluronic acid; read-out: Cav2.3 (pIC50) (converted). On the procedure:
HEK-293 T-Rex cells were transfected with pcDNA3.1-Kir2.1 to generate a stable cell line. After antibiotic selection, the obtained stable pools were analysed using FLIPR^TETRA(membrane potential assay), and a limiting dilution was performed and a HEK-293 T-Rex/Kir2.1 clone was selected. The clone was transfected with pcDNA3.1-Cav2.3e and pBud-Cav-β4-α2δ1 to generate a stable cell line where the Cav2.3e expression is inducible. After antibiotic selection, functional clone pool analysis and two successive limiting dilutions, the final clone underwent a qPCR analysis and a biophysical and pharmacological validation using patch-clamp.
A compound plate, containing 10 test compounds in eight-points dose response with n=4, was prepared. Test compounds dose response curves were prepared in automated fashion in 100% DMSO at CyBio Felix and starting from a stock solution in 100% DMSO; a defined volume was serially moved into destination wells pre-filled with the desired DMSO volume; stock solution concentration volumes were dependent on the final compounds concentrations to be tested and the final DMSO content used in the assay. For the assay test compounds dose response curves ranged from 30 μM and half log dilution with 0.3% final DMSO. In order to obtain the 8-points dose response curve all the concentrations were created by starting from a 10 mM DMSO stock solution and then moving 9.5 μL into a destination well pre-filled with 20.5 μL of 100% DMSO and repeating this step seven times. This initial step was done into 96 MTP plates, 10 compounds/plate. One 384 MTP was then reformatted to contain all the 10 compounds at 8 concentrations, quadruplicate data points. This so obtained 384 MTP compound plate served as source plate in a “mother to child” process with a CyBi®-Well dispenser in which 0.7 μL of compounds were moved into a destination plate pre-filled with 57.6 μL of Tyrode's buffer 0 mM K^+, thus obtaining 4× concentrated compounds solution. In columns 1-2 and 23-24 the control wells were added. Both “source” compound plate and “destination” compound plate were barcoded and a relationship between the two plates was thus generated.
The day before the experiment, cells were detached by gentle wash with DPBS, followed by 5 min incubation at 37° C. with Trypsin solution. Detached cells were diluted with OptiMEM+Doxycycline at 0.2 μg/mL, counted and plated in Poly-D-Lysine coated black/clear bottom (15.000 c/well in 20 μl/well) by the use of a MATRIX WellMate dispenser. Plates were placed into a humidified incubator at 37° C. with 5% CO2 until the experimental day. 24 h after seeding 10 μL/well of 1.5× Fluo8 NW dye solution prepared in Tyrode's buffer 0 mM K^+ were added on top of the seeding medium. Cell plates were incubated for 40-60 min at RT in the dark. We then Injected off-line 10 μL/well of test compounds and controls 4× concentrated in Tyrode's Buffer 0 mM K+ with the CyBi®-Well instrument. Cell plates were incubated 3 minutes at RT. Finally, we injected 20 μL/well of 3× concentrated activator solution (K20-Na130-Ca2 buffer: 20 mM KCl, 130 mM NaCl, 2 mM CaCl2, 10 mM HEPES, 10 mM Glucose, final concentrations, prepared starting from “K0-Na150-Ca2” and “K150-Na0-Ca2” buffers) at FDSS7000EX instrument and read emitted fluorescence for 130 seconds.
Data analysis was performed with Genedata Screener® software and reported compounds activity as % effect in relation to the normalization standards. The Kinetic Response Value (KRV) is calculated as follows:
KRV=Maximal fluorescence recorded from second 5 to second 130 minus baseline fluorescence, computed as average from second 1 to second 2, of the kinetic trace. The KRV was normalized versus Neutral Controls and Inhibitor Controls in order to obtain the Activity[%] for each well. […] Therefore, the compound activity values were scaled (based on the two references) to a common range (two-point normalization). […]
Target sequence in this assay (Q15878 1-2270 isoform Q15878-3): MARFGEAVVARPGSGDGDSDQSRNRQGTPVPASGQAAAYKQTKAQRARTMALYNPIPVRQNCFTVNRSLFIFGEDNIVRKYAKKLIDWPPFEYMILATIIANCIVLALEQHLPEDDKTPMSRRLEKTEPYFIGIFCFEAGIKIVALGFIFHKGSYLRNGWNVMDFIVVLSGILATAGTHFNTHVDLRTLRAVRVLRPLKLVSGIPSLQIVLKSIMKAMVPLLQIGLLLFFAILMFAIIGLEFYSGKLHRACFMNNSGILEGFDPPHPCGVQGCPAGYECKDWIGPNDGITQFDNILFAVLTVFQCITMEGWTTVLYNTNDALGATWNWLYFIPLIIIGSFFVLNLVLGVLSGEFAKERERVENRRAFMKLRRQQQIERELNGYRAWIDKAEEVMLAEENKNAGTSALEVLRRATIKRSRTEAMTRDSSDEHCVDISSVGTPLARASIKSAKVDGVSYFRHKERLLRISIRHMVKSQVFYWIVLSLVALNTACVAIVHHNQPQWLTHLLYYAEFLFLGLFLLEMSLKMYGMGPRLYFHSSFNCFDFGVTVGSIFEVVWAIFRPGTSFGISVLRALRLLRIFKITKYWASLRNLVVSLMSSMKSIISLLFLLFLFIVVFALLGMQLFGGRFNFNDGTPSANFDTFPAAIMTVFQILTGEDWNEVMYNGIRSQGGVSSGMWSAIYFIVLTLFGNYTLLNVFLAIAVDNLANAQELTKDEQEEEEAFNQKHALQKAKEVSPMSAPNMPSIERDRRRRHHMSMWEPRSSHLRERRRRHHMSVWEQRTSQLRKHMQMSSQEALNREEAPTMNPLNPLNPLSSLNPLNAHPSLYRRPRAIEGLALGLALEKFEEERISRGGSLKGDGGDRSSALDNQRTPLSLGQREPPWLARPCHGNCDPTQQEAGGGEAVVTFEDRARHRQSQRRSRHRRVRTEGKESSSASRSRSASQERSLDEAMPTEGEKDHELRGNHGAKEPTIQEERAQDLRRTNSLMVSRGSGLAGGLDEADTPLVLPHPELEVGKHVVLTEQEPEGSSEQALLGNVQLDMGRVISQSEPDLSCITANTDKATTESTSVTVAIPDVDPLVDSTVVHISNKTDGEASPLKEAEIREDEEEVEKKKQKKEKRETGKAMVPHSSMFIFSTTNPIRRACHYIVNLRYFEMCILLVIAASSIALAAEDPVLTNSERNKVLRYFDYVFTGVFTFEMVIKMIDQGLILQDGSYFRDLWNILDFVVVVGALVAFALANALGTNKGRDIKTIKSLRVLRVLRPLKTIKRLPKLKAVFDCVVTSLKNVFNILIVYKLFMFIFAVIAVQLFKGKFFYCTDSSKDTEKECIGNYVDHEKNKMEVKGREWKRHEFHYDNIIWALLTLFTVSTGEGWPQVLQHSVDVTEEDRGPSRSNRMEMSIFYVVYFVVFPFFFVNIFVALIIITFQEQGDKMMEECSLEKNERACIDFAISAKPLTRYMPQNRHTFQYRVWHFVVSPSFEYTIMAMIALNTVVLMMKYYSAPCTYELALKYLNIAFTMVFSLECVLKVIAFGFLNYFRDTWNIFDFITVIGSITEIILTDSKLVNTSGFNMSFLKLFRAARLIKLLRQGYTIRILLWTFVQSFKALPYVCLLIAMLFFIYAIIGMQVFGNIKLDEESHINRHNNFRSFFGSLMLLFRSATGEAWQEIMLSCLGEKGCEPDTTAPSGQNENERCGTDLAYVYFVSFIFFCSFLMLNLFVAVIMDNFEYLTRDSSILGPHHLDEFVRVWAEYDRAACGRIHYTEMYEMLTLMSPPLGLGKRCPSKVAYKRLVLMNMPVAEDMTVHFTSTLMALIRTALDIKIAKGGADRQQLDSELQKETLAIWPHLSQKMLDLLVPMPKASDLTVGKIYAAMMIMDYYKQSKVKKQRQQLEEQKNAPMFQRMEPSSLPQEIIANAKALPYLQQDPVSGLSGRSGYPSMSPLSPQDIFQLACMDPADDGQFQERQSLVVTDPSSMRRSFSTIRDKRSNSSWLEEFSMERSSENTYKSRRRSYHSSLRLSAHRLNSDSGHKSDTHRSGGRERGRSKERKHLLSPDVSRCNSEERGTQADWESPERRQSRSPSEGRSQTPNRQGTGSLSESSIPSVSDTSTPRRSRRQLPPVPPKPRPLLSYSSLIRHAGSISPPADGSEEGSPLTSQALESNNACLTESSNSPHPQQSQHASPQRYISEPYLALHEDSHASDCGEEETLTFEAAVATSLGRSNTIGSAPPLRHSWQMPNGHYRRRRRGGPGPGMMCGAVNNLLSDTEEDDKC

Experiment [2] has as its target Cav2.3 dependent current in HEK-293 T-Rex/Kir2.1/Cav2.3e-β4-α2δ1 cells (Homo sapiens, UniProt Q15878). Nature of the experiment: Whole-cell patch clamp assay (QPatch 16X). In kind it is cell-based. The following applies: whole-cell voltage clamp, room temperature, inward current density; mean ± S.E; read-out: Cav2.3 (pIC50) (converted). On the procedure: HEK-293 T-Rex/Kir2.1/Cav2.3e-β4-α2δ1 cells were seeded 96 hours before experiment and doxycycline at 0.2 μg/mL was added 24 hours before experiment. Just before the experiments cells were washed twice with D-PBS w/o Ca2+/Mg2+ and gently detached from the flask with Detachin. Cells were then re-suspended in the suspension solution (25 mL EX-CELL ACF CHO medium; 0.25 mL of 100× Penicillin/Streptomycin) and placed on the Automated Patch-clamp platform (QPatch 16X).
Standard whole-cell voltage clamp experiments were performed at room temperature using the single hole technology and the following intracellular and extracellular solutions (ICS and ECS, respectively) were used. ICS (mM): CsF 60, CsCl 50, NaCl 10, EGTA 20, BAPTA 5, HEPES 10, NaGTP 0.3, MgATP 5 (pH 7.2; ECS (mM): NMDG-Cl 120, BaCl2 20, HEPES 10, EGTA 7 (pH 7.4). After establishment of the seal and the passage in the whole-cell configuration, the Cav2.3 dependent current was evoked by challenging the cells with the following voltage protocol: the plasma membrane was held at −80 mV then a 50 ms-long depolarizing pulse at 0 mV, followed by a 50 ms-long hyperpolarizing pulse at −100 mV were applied and finally the plasma membrane was held back to −80 mV. This voltage protocol was applied every 10 seconds. Cav2.3 dependent current was first measured in control condition (vehicle, 0.1% DMSO), in the presence of increasing concentration of the compound under investigation and finally SNX 482 was added to fully block any R-type Cav2.3 dependent current.
For data collection, the Sophion proprietary software was used while the analysis was performed off-line using Excel and GraphPad Prism. The inward current (Area Under Curve) measured during each depolarizing pulse was normalized to cell membrane capacitance (Cm) to obtain the average inward current density in each condition (control, compound under investigation and SNX 482). Then, the inhibitory effect of the compound under investigation was evaluated as % of the remaining inward current, normalized to the internal control. […] All data were expressed as mean±S.E
A general note: In patch-clamp work, channel activity is measured electrically.

In experiment [3] the target is T1, Cav2.3. The following applies: read-out: IC50 against Cav2.3; cited from earlier work.
Target sequence in this assay (Q15878 whole entry): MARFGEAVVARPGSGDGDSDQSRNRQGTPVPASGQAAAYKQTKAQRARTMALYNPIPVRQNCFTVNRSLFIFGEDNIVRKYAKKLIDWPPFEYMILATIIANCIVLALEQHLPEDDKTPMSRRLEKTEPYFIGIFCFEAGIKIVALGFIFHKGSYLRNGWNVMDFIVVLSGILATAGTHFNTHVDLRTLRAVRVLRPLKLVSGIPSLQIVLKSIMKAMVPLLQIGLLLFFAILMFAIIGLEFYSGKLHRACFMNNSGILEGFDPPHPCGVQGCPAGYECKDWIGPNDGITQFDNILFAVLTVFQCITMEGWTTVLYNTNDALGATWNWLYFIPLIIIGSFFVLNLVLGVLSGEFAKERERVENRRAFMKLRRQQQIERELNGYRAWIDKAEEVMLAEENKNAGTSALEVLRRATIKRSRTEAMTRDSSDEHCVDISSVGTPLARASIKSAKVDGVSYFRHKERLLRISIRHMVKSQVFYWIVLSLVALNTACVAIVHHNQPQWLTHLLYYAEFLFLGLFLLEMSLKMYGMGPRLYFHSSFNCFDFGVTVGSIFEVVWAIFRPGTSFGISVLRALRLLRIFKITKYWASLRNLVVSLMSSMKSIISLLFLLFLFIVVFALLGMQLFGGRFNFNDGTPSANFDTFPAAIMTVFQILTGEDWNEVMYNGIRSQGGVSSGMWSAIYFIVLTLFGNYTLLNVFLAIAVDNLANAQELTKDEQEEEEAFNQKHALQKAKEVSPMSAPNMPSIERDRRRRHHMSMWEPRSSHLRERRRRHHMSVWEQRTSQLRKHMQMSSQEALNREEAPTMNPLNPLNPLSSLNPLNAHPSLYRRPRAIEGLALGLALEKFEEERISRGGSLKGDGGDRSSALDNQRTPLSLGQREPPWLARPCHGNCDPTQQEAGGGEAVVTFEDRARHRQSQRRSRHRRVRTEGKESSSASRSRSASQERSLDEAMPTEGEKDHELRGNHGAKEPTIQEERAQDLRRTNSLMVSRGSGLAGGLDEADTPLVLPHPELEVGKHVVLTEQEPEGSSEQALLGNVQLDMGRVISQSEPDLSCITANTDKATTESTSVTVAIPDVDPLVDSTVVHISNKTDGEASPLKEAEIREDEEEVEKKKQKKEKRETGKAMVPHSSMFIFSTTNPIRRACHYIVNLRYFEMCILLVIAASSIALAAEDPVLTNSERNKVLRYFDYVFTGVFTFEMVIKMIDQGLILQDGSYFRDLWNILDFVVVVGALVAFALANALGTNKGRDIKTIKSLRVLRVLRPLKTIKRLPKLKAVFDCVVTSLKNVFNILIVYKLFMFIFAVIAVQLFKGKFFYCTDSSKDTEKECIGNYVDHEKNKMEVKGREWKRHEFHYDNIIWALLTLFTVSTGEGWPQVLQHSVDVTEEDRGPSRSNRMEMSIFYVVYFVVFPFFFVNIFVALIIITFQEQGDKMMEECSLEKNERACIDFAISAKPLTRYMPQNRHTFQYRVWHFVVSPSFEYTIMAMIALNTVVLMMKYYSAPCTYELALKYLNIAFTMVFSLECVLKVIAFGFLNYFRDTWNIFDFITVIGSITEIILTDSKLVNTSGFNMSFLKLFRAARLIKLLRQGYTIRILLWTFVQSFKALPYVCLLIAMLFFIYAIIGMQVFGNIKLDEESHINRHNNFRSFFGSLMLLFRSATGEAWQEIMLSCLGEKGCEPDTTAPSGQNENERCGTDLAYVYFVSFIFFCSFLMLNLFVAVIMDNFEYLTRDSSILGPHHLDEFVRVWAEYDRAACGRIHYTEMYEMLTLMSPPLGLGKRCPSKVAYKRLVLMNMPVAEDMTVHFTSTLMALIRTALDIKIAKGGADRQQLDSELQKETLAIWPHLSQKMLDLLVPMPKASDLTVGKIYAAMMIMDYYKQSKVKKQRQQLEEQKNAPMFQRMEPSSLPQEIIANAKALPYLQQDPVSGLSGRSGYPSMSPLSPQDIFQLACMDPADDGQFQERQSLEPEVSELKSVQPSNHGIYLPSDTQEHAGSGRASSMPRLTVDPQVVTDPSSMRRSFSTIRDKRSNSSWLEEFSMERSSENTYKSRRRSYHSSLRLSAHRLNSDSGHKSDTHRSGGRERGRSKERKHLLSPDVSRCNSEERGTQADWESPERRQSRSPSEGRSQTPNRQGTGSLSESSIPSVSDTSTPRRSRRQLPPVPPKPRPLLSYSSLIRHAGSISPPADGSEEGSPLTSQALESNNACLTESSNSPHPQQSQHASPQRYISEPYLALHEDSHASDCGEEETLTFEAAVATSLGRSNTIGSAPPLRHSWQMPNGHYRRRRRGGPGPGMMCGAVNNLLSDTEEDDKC

Cav2.3 dependent current in HEK-293 T-Rex/Kir2.1/Cav2.3e-β4-α2δ1 cells, sequence (Q15878 1-2270 isoform Q15878-3): as the sequence (Q15878 1-2270 isoform Q15878-3) above

`CCN([C@H](c1ccc(F)cc1)C(F)(F)F)S(=O)(=O)c1ccc2c(c1)CN(C(=O)C(C)C)CC2` (stereo in doubt) [Example 6, N-ethyl-2-isobutyryl-N-(2,2,2-trifluoro-1-(4-fluorophenyl)ethyl)-1,2,3,4-tetrahydroisoquinoline-7-sulfonamide]: the IC50 at Cav2.3 [1] is 398 nM; in experiment [2], 87.1 nM.

Consider `CCN([C@@H](C)c1ccc(C(F)(F)F)cc1)S(=O)(=O)c1ccc2c(c1)CN(C(=O)C(C)C)CC2` [Example 1, (S)-N-ethyl-2-isobutyryl-N-(1-(4-(trifluoromethyl)phenyl)ethyl)-1,2,3,4-tetrahydroisoquinoline-7-sulfonamide], for which the IC50 is 661 nM on Cav2.3 [1] and 251 nM in experiment [2].

For the compound `CC(C)C(=O)N1CCc2ccc(S(=O)(=O)N(C)[C@H](c3ccc(F)cc3)C(F)(F)F)cc2C1` [Example 9, (R)-2-isobutyryl-N-methyl-N-(2,2,2-trifluoro-1-(4-fluorophenyl)ethyl)-1,2,3,4-tetrahydroisoquinoline-7-sulfonamide], the IC50 at Cav2.3 [1] is 676 nM; in experiment [2] it was 525 nM.

On to `CCN([C@@H](C)c1ccc(F)cc1)S(=O)(=O)c1ccc2c(c1)CN(C(=O)C(C)C)CC2` [Example 12, (S)-N-ethyl-N-(1-(4-fluorophenyl)ethyl)-2-isobutyryl-1,2,3,4-tetrahydroisoquinoline-7-sulfonamide], for which the IC50 is 537 nM at Cav2.3 [1] and 93.3 nM in experiment [2].

On to `CCN([C@@H](C)c1ccccc1)S(=O)(=O)c1ccc2c(c1)CN(C(=O)C1CC1)CC2` [Example 14, (S)-2-(cyclopropanecarbonyl)-N-ethyl-N-(1-phenylethyl)-1,2,3,4-tetrahydroisoquinoline-7-sulfonamide], for which the IC50 on Cav2.3 [1] is 724 nM; in experiment [2] it was 1120 nM.

Regarding `CCN([C@@H](C)c1ccc(C(F)(F)F)cc1)S(=O)(=O)c1ccc2c(c1)CCN(C(=O)C(C)C)C2` [Example 20, (S)-N-ethyl-2-isobutyryl-N-(1-(4-(trifluoromethyl)phenyl)ethyl)-1,2,3,4-tetrahydroisoquinoline-6-sulfonamide], the results for the IC50 (on Cav2.3 [1]; in experiment [2]) were 1580 nM and 372 nM, respectively.

For the compound `CC(C)C(=O)N1CCc2ccc(S(=O)(=O)N(CCF)C(c3ccc(F)cc3)C(F)(F)F)cc2C1` (stereo not drawn) [Example 49, N-(2-fluoroethyl)-2-isobutyryl-N-(2,2,2-trifluoro-1-(4-fluorophenyl)ethyl)-1,2,3,4-tetrahydroisoquinoline-7-sulfonamide], the IC50 at Cav2.3 [1] is 513 nM; in experiment [2], 204 nM.

As to “SNX-482 (GVDKAGCRYMFGGCSVNDDCCPRLGCHSLFSYCAWDLTFSD; UniProt P56854 1-41, looked up)”, the IC50 with Cav2.3 [3] was 15 to 30 nM.
